Data published in the SangsterLogP compilation.

logP	SMILES
4.47	c1ccc2c(c1)Sc1ccccc1S2
1.67	c1ccc(-c2ccccn2)nc1
4.23	c1ccc2c(c1)Cc1ccccc1O2

Further lines, the molecule ahead of its results:

SMILES	logP
c1csc(-c2cccs2)c1	3.75
c1ccc2c(c1)Oc1ccccc1O2	4.19
c1ccc2c(c1)COC2	1.63
c1ccc2sccc2c1	3.26
c1ccc2cc3c(cc2c1)sc1ccccc13	5.07

Remark: another data set of the same source

logP	SMILES
5.08	c1ccc2cc3c(cc2c1)oc1ccccc13
1.93	c1cnc2c(c1)ccc1cccnc12
7.11	c1ccc2cc3c(ccc4c5ccccc5ccc34)cc2c1
4.6	c1ccc(-c2cccc(-c3ccccc3)n2)cc1
7.11	c1ccc2c(c1)ccc1c2ccc2c3ccccc3ccc21
7.11	c1ccc2c(c1)ccc1c2ccc2ccc3ccccc3c21
7.11	c1ccc2cc3c4ccccc4c4ccccc4c3cc2c1
6.63	c1cc2c3c(c1)ccc1ccc4cccc-2c4c13
7.71	c1ccc2c(c1)cc1ccc3cccc4c5ccccc5c2c1c34
1.96	c1ccc(-c2cccc(-c3ccccn3)n2)nc1
3	c1ccc(-c2cc3cccnc3c3ncccc23)cc1
1.33	c1cc(-c2ccncc2)ccn1
5.84	c1ccc2c(c1)c1ccccc1c1ccccc21
6.44	c1ccc2c(c1)c1cccc3ccc4cccc2c4c31

Further lines, the molecule ahead of its results:

SMILES	logP
c1cc2ccc3cc4cccc5ccc6cc(c1)c2c3c6c54	7.04
c1ccc2cc3cc4cc5ccccc5cc4cc3cc2c1	7.11
c1ccc2occc2c1	2.53
c1ccc2c(c1)c1ccccc1c1c3ccccc3c3ccccc3c21	8.39
c1ccc(-c2c3ccccc3c(-c3ccccc3)c3ccccc23)cc1	8.46
c1ccc2c(c1)CCO2	2.26
c1ccc2c(c1)ccc1ncccc12	3.25
c1cc2ccc3ccc4ccc5cccc6c(c1)c2c3c4c56	7.04
c1cnc2c(c1)ccc1ncccc12	1.93
c1cnccn1	-0.05
c1ccc2c(c1)ccc1cccnc12	3.25
c1ccc2c(c1)ccc1c3ccc4ccccc4c3[nH]c21	5.89
C1=Cc2ccc3c4c(ccc1c24)C=C3	5.07
